For 13 compounds, IC50 and inhibition results are on record in patent publication US5506252A, “Substituted N-heteroaryl and N-aryl-1,2-diaminocyclobutene-3,4-diones” (American Home Products Corporation, priority 1994, dated 1996).

Each structure is given as a SMILES string.

Usually inhibition stands for the percentage by which the read-out fell short of the control.

In one experiment the test system is Isolated Rat Bladder Strips. In words: Inhibition of contractions in isolated rat bladder strips (smooth muscle relaxing activity, KCl-enhanced contractions). It is filed as cell-based, Sprague-Dawley rats. The following applies: 0.5 h, 15 mM KCl added, 30 minute challenge, read-out: IC50 (concentration required to elicit 50% inhibition of pre-drug contractile activity). The text has this: The smooth muscle relaxing activity of the compounds of this invention was established in accordance with standard pharmaceutically accepted test procedures in representative compounds as follows:
Sprague-Dawley rats (150-200 g) are rendered unconscious by CO2 asphyxiation and then euthanized by cervical dislocation. The bladder is removed into warm (37 deg. C.) physiological salt solution (PSS) of the following composition (mM): NaCl, 118.4; KCl, 4.7; CaCl2, 2.5; […]; NaHCO3, 24.9; KH2 PO4, 1.2; glucose, 11.1; EDTA, 0.023; gassed with […]; pH 7.4. The bladder is opened and then cut into strips 1-2 mm in width and 7-10 mm in length. The strips are subsequently suspended in a 10 mL tissue bath under an initial resting tension of 1.5 g. The strips are held in place by two surgical clips one of which is attached to a fixed hook while the other is attached to an isometric force transducer. […] The carbachol is then washed out and the tissue allowed to relax to its resting level of activity. Following one further 30 minute period of recovery, an additional 15 mM KCl are introduced into the tissue bath. This increase in KCl concentration results in a large increase in the amplitude of spontaneous contractions (and initiation of contractions in previously quiescent strips) superimposed upon a small increase in basal tone. Following stabilization of this enhanced level of contractile activity, incremental increases in the concentration of test compound or vehicle are introduced into the tissue bath. Contractile activity is measured for each compound or vehicle concentration during the last minute of a 30 minute challenge.
The isometric force developed by the bladder strips is measured using a […] to elicit 50% inhibition of pre-drug contractile activity (IC50 concentration) is calculated from this concentration-response curve.
With `O=c1c(Nc2ccncc2)c(N[C@H]2C[C@@H]3CC[C@H]2C3)c1=O` (relative stereo) [Example 2, (Exo)-3-(bicyclo[2.2.1]hept-2-ylamino)-4-(pyridin-4-ylamino)-cyclobut-3,-ene-1,2-dione], the IC50 amounted to 15800 nM.

In the case of `CC(Nc1c(Nc2ccncc2)c(=O)c1=O)C(C)(C)C` (stereo not shown) [Example 1, 3-(Pyridin-4-ylamino)-4-(1,2,2-trimethyl-propylamino)-cyclobut-3-ene-1,2-dione], the IC50 came out at 1360 nM.

For `CC(Nc1c(Nc2cccnc2)c(=O)c1=O)C(C)(C)C` (stereo not shown) [Example 3, 3-(Pyridin-3-ylamino)-4-(1,2,2-trimethyl-propylamino)-cyclobut-3-ene-1,2-dione], the IC50 worked out at 1950 nM.

For the compound `CC(C)(C)Nc1c(Nc2cccnc2)c(=O)c1=O` [Example 7, 3-Tert-butylamino-4-(pyridin-3-ylamino)-cyclobut-3-ene-1,2-dione], the IC50 turned out to be 2800 nM.

Regarding `CC(C)(C)Nc1c(Nc2cccc3cnccc23)c(=O)c1=O` [Example 8, 3-Tert-butylamino-4-(isoquinolin-5-ylamino)-cyclobut-3-ene-1,2-dione], the IC50 is 1840 nM.

As for `CC(Nc1c(Nc2cccc3cccnc23)c(=O)c1=O)C(C)(C)C` (stereo not shown) [Example 10, 3-(Quinolin-8-ylamino)-4-(1,2,2-trimethyl-propylamino)-cyclobut-3-ene-1,2-dione], the IC50 turned out to be 8000 nM.

Take `CC(C)(C)Nc1c(Nc2ccc3cn[nH]c3c2)c(=O)c1=O` [Example 19, 3-Tert-butylamino-4-(1H-indazol-6-ylamino)-cyclobut-3-ene-1,2-dione]: the IC50 amounted to 6340 nM.

On to `CC(Nc1c(Nc2ccc(C#N)cc2)c(=O)c1=O)C(C)(C)C` (stereo not shown) [Example 21, 4-[3,4-Dioxo-2-(1,2,2-trimethyl-propylamino)-cyclobut-1-enylamino]-benzonitrile], for which the IC50 was 520 nM.

Regarding `CCc1cc(C#N)ccc1Nc1c(N[C@H](C)C(C)(C)C)c(=O)c1=O` [Example 24, (+)-(R )-4-[3,4-Dioxo-2-(1,2,2-trimethyl-propylamino)-cyclobut-1-enylamino]-3-ethyl-benzonitrile], the IC50 worked out at 21 nM.

For `COc1cc(C#N)ccc1Nc1c(N[C@H](C)C(C)(C)C)c(=O)c1=O` [Example 25, (+)-(R)-4-[3,4-Dioxo-2-(1,2,2-trimethyl-propylamino)-cyclobut-1-enylamino]-3-methoxy-benzonitrile], the IC50 amounted to 290 nM.

Staying with this experiment, now noted: 0.5 h, at 30 μM, 15 mM KCl added, 30 minute challenge, read-out: Inhibition of Force (%) at (x) μM.
On to `Nc1c(Nc2cccnc2)c(=O)c1=O` [Example 6], for which the inhibition at 30 µM was 31%.

For `Nc1c(Nc2cccc3cnccc23)c(=O)c1=O` [Example 9, 3-Amino-4-(isoquinolin-5-ylamino)-cyclobut-3-ene-1,2-dione], the inhibition at 30 µM amounted to 43%.

For the compound `CC(C)(C)Nc1c(Nc2cnc3ccccc3c2)c(=O)c1=O` [Example 14, 3-Tert-butylamino-4-(quinolin-3-ylamino)-cyclobut-3-ene-1,2-dione], the inhibition at 30 µM is 51%.
